Laboratory results taken from patent publication US7595003B2, “On-board water treatment and management process and apparatus” (priority 2004, dated 2009).
“And” between values parts separate entries of the source, which are not always exact repeats. Equal entries are not always repeated.

Key:
[1] = 20° C.; cited from earlier work
[2] = system: phytoplankton; assay: flowing system (Phase II): culture tests for the presence of phytoplankton; assay type: cell-based; design: key: Bacterial growth (Bac); Phytoplankton (PHY); conditions: outlet, 125 gpm, UTS Full, ozone Full (1.0 mg/L), 8 psu; samples 3A, 4A
[3] = system: organisms contained in the ballast water; assay: batch challenge of unfortified actual ballast water; assay type: cell-based
Experimental: The basic approach was evaluated with batch challenging of actual ballast water. The water came from the hold of a ship originating from Port Moin, Costa Rica. Ballast water in the ship was sampled in the Port of Philadelphia, and the biota in the samples was characterized by the Bigelow Laboratory for Ocean Sciences. About 80% of the water was taken on or exchanged in the Caribbean, while it is believed that the remaining 20% came from the port of origin. The water had been in the ballast tanks for 21 days, and total ballast capacity of the vessel was 265 cubic meters. The samples were drawn at the 73 cubic meter level.
A challenge was made of unfortified ballast water (without B. subtilis endospores) to assess the killing of organisms contained in the ballast water. For this test, an applied ozone power of 660 watts was used with 0.8 m^3hr^−1. The samples were quenched by adding 10 ml of 1% sodium thiosulfate to the 1 L HDPE collection bottles prior to collecting the samples. A control sample without ozone treatment or quenchant was submitted along with a control containing the quenchant without treatment.
The treatment times for the samples were in one-minute increments from one to five minutes.

[4] = system: Cryptosporidium oocysts; conditions: exposure for 1 minute; cited from earlier work
[5] = system: B. subtilis var. niger endospores ATCC 9372; assay: batch challenge of B. subtilis endospores in deionized buffered water, plate count; assay type: cell-based, Bacillus subtilis
[6] = system: bacteria and fungi; assay: flowing system (Phase II): culture tests for the presence of bacteria and fungi; assay type: cell-based; design: key to growth in TM (test medium) / growth in M (malt broth) / growth in PM (peptonemethylamine broth) / growth in P (peptone broth) / growth in BP: Bacterial growth (Bac); Phytoplankton (PHY)
Experimental: Bigelow Laboratory inoculated 200 μL of sample into various media the day after the samples were collected. The flow rate, water pressure (PSI), temperature, ultrasonic treatment system (UTS) and ozone treatment values were provided by ETI. The hydrogen ion concentration (pH) and salinity values were determined at Bigelow Laboratory. Culture treatments included tests for the presence of bacteria and fungi [peptonemethylamine broth (PM), peptone broth (P), test medium (TM), malt broth (M)] and tests for the presence of phytoplankton [DY-V medium, freshwater (DYV), K medium, oceanic (K), L1+NH4, coastal (L1+NH4), black sea medium, brackish at 16 psu (Blk Sea), L1/24 medium, coastal at 24 psu (L1/24), Prov medium, coastal enriched with soil extract (Prov)]. Bacterial growth (Bac) developed in all of the bacterial test media. Phytoplankton (PHY) grew in all algal growth media (see footnotes for details).
(§1) A summary of data is provided in Table 6, below, from a second batch of harbor water samples that were likewise examined by Bigelow Laboratory the day after they were collected. 200 μL of sample was inoculated into various media. The flow rate, water pressure (PS), temperature, ultrasonic treatment system (UTS) and ozone treatment values were provided by ETI. The hydrogen ion concentration (pH) and salinity values were determined at Bigelow Laboratory. Culture treatments included tests for the presence of bacteria and fungi [peptonemethylamine broth (PM), peptone broth (P), test medium (TM), malt broth (M)] and tests for the presence of phytoplankton [DY-V medium, freshwater (DYV), K medium, oceanic (K), L1+NH4, coastal (L1+NH4), black sea medium, brackish at 16 psu (Blk Sea), L1/24 medium, coastal at 24 psu (L1/24), Prov medium, coastal enriched with soil extract (Prov)]. Bacterial growth (Bac) developed in all of the bacterial test media. Zooflagellates (Zoo) grew in all algal growth media from inlet and strainer samples but none from the outlet samples.
as §1, with “In table 7, below, a” for “A”, “provided” for “provided in Table 6, below,”, “all” for “all of the bacterial”, “media without ozone treatment or growth (Bac) developed” for “media. Zooflagellates (Zoo) grew”, “test” for “algal growth”, “without ozone treatment or with a flow rate over 30 gpm.” for “from inlet and strainer samples but none from the outlet samples.”
as §1, with “In table 8, below, a” for “A”, “provided” for “provided in Table 6, below,”, “(PSI),” for “(PS),”, “Bacterial growth (Bac) developed in all of the bacterial test media. Zooflagellates (Zoo) grew in all algal growth media from inlet and strainer samples but none from the outlet samples.” left out

[7] = system: invertebrates; conditions: typical applications; cited from earlier work
[8] = ozone mass transport into water in acoustic reactor; assay type: physicochemical; conditions: high acoustic intensity (215 dB) versus low acoustic intensity (205 dB, nominally same as sparger)
Experimental: Adopting the same approach as above, acoustic energy at 205 and 215 dB re 1 μPa at 75 Hz was supplied along with the ozone over the same range of concentration. The acoustic pressure signal of the sonic devices was detected with a hydrophone sensor placed in the reactor. A typical 214 dB signal is shown in the captured trace in FIG. 11. In this series of experiments with a constant 1.5 mg/L concentration, the applied power of the ozone generator was constant; i.e., it was not controlled by the feedback of the dissolved ozone concentration controller. Higher intensity of applied acoustic energy appears to correlate to an increase in ozone mass transport. Utilizing the slopes of the ozone concentration curves, one can calculate an apparent mass transfer coefficient about 40% greater for the high acoustic intensity than for the low acoustic intensity, which was nominally the same as the sparger. This effect has been noted in other applications of ozone mixing, specifically in the oxidative treatment of waste streams. Intensity of this magnitude corresponds to pressure fluctuations of over 8 psi.

[9] = ozone power 660 watts, 0.8 m^3hr^−1, treatment 1 to 5 minutes
[10] = outlet, 125 gpm, UTS Full, ozone Full (1.0 mg/L), 8 psu, samples 3A, 4A
[11] = sample 17A: outlet, 10 gpm, UTS Full, ozone 60.0%, 7 psu
[12] = sample 20A: outlet, 30 gpm, UTS Full, ozone 60.0%, 7 psu
[13] = sample 23A: outlet, 50 gpm, UTS Full, ozone 60.0%, 7 psu
[14] = sample 26A: outlet, 88 gpm, UTS Full, ozone 60.0%, 7 psu
[15] = sample 35A: outlet, 50 gpm, UTS Full, ozone Full (1.0 mg/L), 9 psu, one of the triplicate cultures had bacteria
[16] = sample 36A: outlet, 50 gpm, UTS Off, ozone Full (1.0 mg/L), 9 psu
[17] = sample 38A: outlet, 100 gpm, UTS Full, ozone Full (1.0 mg/L), 9 psu, triplicate

SMILES: OBr [Hypobromous acid]
- pKa [1]: 8.8

SMILES: O=[O+][O-] [Ozone, ozone]
- growth in Blk Sea (black sea medium, brackish at 16 psu) [2]: PHY^6
- growth in DYV (DY-V medium, freshwater) [2]: PHY^3
- growth in K (K medium, oceanic) [2]: PHY^4
- growth in L1 + NH4 (coastal) [2]: PHY^5
- growth in L1/24 (coastal at 24 psu) [2]: PHY^7
- growth in Prov (coastal enriched with soil extract) [2]: PHY^8
- culture media tests of treated samples ([3]; one-minute treated sample, DYU medium, the only positive of thirty tests): positive growth of a green coccoid alga
- bacteria and zooflagellates in treated samples [3, 9]: positive
- ciliates, dinoflagellates, nematodes in treated samples [3, 9]: no ciliates, dinoflagellates, nematodes, etc., observed
- life in treated samples [3, 9]: nearly devoid of life
- ozone concentration killing Cryptosporidium oocysts [4]: about 1.5 mg/L
- ozone concentration time value required to lower viable B. subtilis endospores by 99.9% ([5]; buffered water (pH 7.8), no additional ozone demand): about 4
- log 3 ozone concentration time value ([5]; ozone only (diffuser), no acoustic energy, deionized water): 4.46 and 4.5
- log of colony forming units per mL ([5]; ozone setpoint 1.5 mg/L, diffuser, no acoustic energy, deionized water, at 5 minutes, about 5 at 0 minutes): about 2
- log 3 ozone concentration time value ([5]; ozone with acoustic energy, intensity increased to 215 dB, 75 Hz, deionized water): 4.0
- bacteria in outlet samples ([6]; full ozone treatment, flow rates of 30 gpm or less, 21-day incubation): killed all bacteria
- growth in M (malt broth) [6, 10]: Bac
- growth in P (peptone broth) [6, 10]: Bac
- growth in PM (peptonemethylamine broth) [6, 10]: Bac
- growth in TM (test medium) [6, 10]: Bac
- growth in M (malt broth) [6, 11]: Bac
- growth in P (peptone broth) [6, 11]: Bac
- growth in PM (peptonemethylamine broth) [6, 11]: Bac
- growth in TM (test medium) [6, 11]: Bac
- growth in M (malt broth) [6, 12]: Bac
- growth in P (peptone broth) [6, 12]: Bac
- growth in PM (peptonemethylamine broth) [6, 12]: Bac
- growth in TM (test medium) [6, 12]: Bac
- growth in M (malt broth) [6, 13]: Bac
- growth in P (peptone broth) [6, 13]: Bac
- growth in PM (peptonemethylamine broth) [6, 13]: Bac
- growth in TM (test medium) [6, 13]: Bac
- growth in M (malt broth) [6, 14]: Bac
- growth in P (peptone broth) [6, 14]: Bac
- growth in PM (peptonemethylamine broth) [6, 14]: Bac
- growth in TM (test medium) [6, 14]: Bac
- growth in M (malt broth) [6, 15]: Bac^3
- growth in PM (peptonemethylamine broth) [6, 15]: Bac^2
- growth in TM (test medium) [6, 15]: Bac^3
- growth in BP [6, 16]: Bac
- growth in M (malt broth) [6, 16]: Bac
- growth in TM (test medium) [6, 16]: Bac
- growth in BP [6, 17]: Bac
- growth in M (malt broth) [6, 17]: Bac
- growth in PM (peptonemethylamine broth) [6, 17]: Bac
- growth in TM (test medium) [6, 17]: Bac
- contact dosage needed to kill invertebrates [7]: ~0.3 mg/L
- apparent mass transfer coefficient, increase [8]: about 40%
